Results as given in patent US20230183237A1, “COMPETITIVE AND NONCOMPETITIVE INHIBITORS OF THE MUSCARINIC ACETYLCHOLINE RECEPTOR M5” (Vanderbilt University, priority 2020, published 2023).
pIC50: −log10 of the molar value. Where two headings read alike, the source gives them in different places.

Target: T1, hM5 (Homo sapiens, UniProt P08912)
T1 construct: expressed in transfected cells
T1 sequence (P08912 1-532): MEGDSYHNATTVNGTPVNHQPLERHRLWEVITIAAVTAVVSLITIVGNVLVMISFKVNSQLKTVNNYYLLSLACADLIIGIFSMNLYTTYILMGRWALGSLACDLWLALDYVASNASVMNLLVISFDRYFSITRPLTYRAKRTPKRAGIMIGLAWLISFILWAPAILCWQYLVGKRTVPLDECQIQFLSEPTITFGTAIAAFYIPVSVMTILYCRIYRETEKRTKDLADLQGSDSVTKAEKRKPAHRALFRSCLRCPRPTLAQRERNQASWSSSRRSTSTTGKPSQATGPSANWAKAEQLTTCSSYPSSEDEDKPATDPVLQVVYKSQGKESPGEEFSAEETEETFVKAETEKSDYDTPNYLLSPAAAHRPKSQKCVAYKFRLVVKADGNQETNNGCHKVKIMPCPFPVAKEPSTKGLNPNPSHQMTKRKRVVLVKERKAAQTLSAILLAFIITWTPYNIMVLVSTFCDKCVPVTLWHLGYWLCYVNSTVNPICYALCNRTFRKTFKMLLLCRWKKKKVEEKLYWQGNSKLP
Assay: Calcium mobilization concentration-response (IC50 vs EC80 acetylcholine), CHO hM5
Assay type: cell-based
How it was run: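 CHO cells stably expressing hM5, dye-loaded, in HBSS/20 mM HEPES/2.5 mM probenecid, pH 7.4. Compounds were pre-incubated 140 s before an EC80 acetylcholine challenge, with calcium flux read kinetically.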

[1] = CELL LINE hM5, calcium mobilization, EC80 acetylcholine addition, read-out: IC50
[2] = CELL LINE hM5, vs EC80 acetylcholine, read-out: IC50

pIC50 [1] | pIC50 [2] | Structure (SMILES) | further results
5.68 | – | O=S(=O)(c1cc2c(cc1F)OCC2)N1CCC(c2cn3ncnc3cc2C(F)(F)F)CC1 [Compound 110, 6-(1-((6-fluoro-2,3-dihydrobenzofuran-5-yl)sulfonyl)piperidin-4-yl)-7-(trifluoromethyl)-[1,2,4]triazolo[1,5-a]pyridine] | –
7.66 | – | Cc1ncc(S(=O)(=O)N2CCC(c3cn4ncnc4cc3Cl)CC2)n1C [Compound 294, 7-chloro-6-(1-((1,2-dimethyl-1H-imidazol-5-yl)sulfonyl)piperidin-4-yl)-[1,2,4]triazolo[1,5-a]pyridine] | –
– | 8.22 | O=S(=O)(c1cnc2sccn12)N1CCC(c2cn3ncnc3cc2Cl)CC1 [Compound 531, 5-((4-(7-chloro-[1,2,4]triazolo[1,5-a]pyridin-6-yl)piperidin-1-yl)sulfonyl)imidazo[2,1-b]thiazole] | –
7.13 | – | O=S(=O)(c1cnn2c1CCC2)N1CCC(c2cn3ncnc3cc2C(F)(F)F)CC1 [Compound 272, 6-(1-((5,6-dihydro-4H-pyrrolo[1,2-b]pyrazol-3-yl)sulfonyl)piperidin-4-yl)-7-(trifluoromethyl)-[1,2,4]triazolo[1,5-a]pyridine] | –
– | 6.86 | COc1c(S(=O)(=O)N2CCC(c3cn4ncnc4cc3F)CC2)cnn1C [Compound 574, 7-fluoro-6-(1-((5-methoxy-1-methyl-1H-pyrazol-4-yl)sulfonyl)piperidin-4-yl)-[1,2,4]triazolo[1,5-a]pyridine] | –
– | 6.61 | Cc1ncc(S(=O)(=O)N2CCC(c3cn4ncnc4cc3CF)CC2)o1 [Compound 623, 5-((4-(7-(fluoromethyl)-[1,2,4]triazolo[1,5-a]pyridin-6-yl)piperidin-1-yl)sulfonyl)-2-methyloxazole] | –
– | 6.76 | O=S(=O)(c1cnc(Cl)s1)N1CCC(c2cn3ncnc3cc2Cl)CC1 [Compound 532, 2-chloro-5-((4-(7-chloro-[1,2,4]triazoto[1,5-a]pyridin-6-yl)piperidin-1-yl)sulfonyl)thiazole] | –
< 5.00 | – | Cc1nn(C(F)F)cc1S(=O)(=O)N1CCC(c2cn3ncnc3cc2C(F)(F)F)CC1 [Compound 276, 6-(1-((1-(difluoromethyl)-3-methyl-1H-pyrazol-4-yl)sulfonyl)piperidin-4-yl)-7-(trifluoromethyl)-[1,2,4]triazolo[1,5-a]pyridine] | –
6.56 | – | Cc1cn2ncnc2cc1C1CCN(S(=O)(=O)c2cnn(C)c2C)CC1 [Compound 222, 7-(1-((1,5-Dimethyl-1H-pyrazol-4-yl)sulfonyl)piperidin-4-yl)-6-methyl-[1,2,4]triazolo[1,5-a]pyridine] | –
– | 8.10 | Cc1cc2ncnn2cc1C1CCN(S(=O)(=O)c2cnn(C)c2Br)CC1 [Compound 522, 6-(1-((5-Bromo-1-methyl-1H-pyrazol-4-yl)sulfonyl)piperidin-4-yl)-7-methyl-[1,2,4]triazolo[1,5-a]pyridine] | –
– | 6.99 | O=S(=O)(c1cnn2ccccc12)N1CCC(c2cn3ncnc3cc2C(F)(F)F)CC1 [Compound 511, 6-(1-(pyrazolo[1,5-a]pyridin-3-ylsulfonyl)piperidin-4-yl)-7-(trifluoromethyl)-[1,2,4]triazolo[1,5-a]pyridine] | –
– | 6.94 | [2H]C([2H])([2H])Oc1c(S(=O)(=O)N2CCC(c3cn4ncnc4cc3C(F)(F)F)CC2)cnn1C [Compound 615, 6-(1-((5-(methoxy-d3)-1-methyl-1H-pyrazol-4-yl)sulfonyl)piperidin-4-yl)-7-(trifluoromethyl)-[1,2,4]triazoto[1,5-a]pyridine] | –
5.39 | – | Cc1cc2ncnn2cc1C1CCN(S(=O)(=O)c2ccc(F)cc2)CC1 [Compound 153, 6-(1-((4-fluorophenyl)sulfonyl)piperidin-4-yl)-7-methyl-[1,2,4]triazolo[1,5-a]pyridine] | –
7.09 | – | Cc1cc2ncnn2cc1C1CCN(S(=O)(=O)c2c(C(F)(F)F)nn(C)c2C)CC1 [Compound 118, 6-(1-((1,5-dimethyl-3-(trifluoromethyl)-1H-pyrazol-4-yl)sulfonyl)piperidin-4-yl)-7-methyl-[1,2,4]triazolo[1,5-a]pyridine] | –

Continued, compound first:

Structure (SMILES) | pIC50 [1] | pIC50 [2] | further results
Cc1c(C2CCN(S(=O)(=O)c3cnn(C)c3C)CC2)cn2ncnc2c1F [Compound 264, 6-(1-((1,5-dimethyl-1H-pyrazol-4-yl)sulfonyl)piperidin-4-yl)-8-fluoro-7-methyl-[1,2,4]triazolo[1,5-a]pyridine] | 7.68 | – | –
Cn1ncc(S(=O)(=O)N2CCC(c3ccc4c(c3)OCO4)CC2)c1Cl [Compound 357, 4-(benzo[d][1,3]dioxol-5-yl)-1-((5-chloro-1-methyl-1H-pyrazol-4-yl)sulfonyl)piperidine] | 6.42 | – | –
Cc1nn(C)cc1S(=O)(=O)N1CCC(c2cc3cc[nH]c3cn2)CC1 [Compound 95, 5-(1-((1,3-dimethyl-1H-pyrazol-4-yl)sulfonyl)piperidin-4-yl)-1H-pyrrolo[2,3-c]pyridine] | < 5.00 | – | –
Cc1cc2c(cc1C1CCN(S(=O)(=O)c3cnc(C)n3C)CC1)OCO2 [Compound 373, 1-((1,2-dimethyl-1H-imidazol-5-yl)sulfonyl)-4-(6-methylbenzo[d][1,3]dioxol-5-yl)piperidine] | 7.89 | – | –
Cc1cc2ncnn2cc1C1CC2CCC(C1)N2S(=O)(=O)c1cnn(C)c1C (centres unmarked) [Compound 191, 6-(8-((1,5-dimethyl-1H-pyrazol-4-yl)sulfonyl)-8-azabicyclo[3.2.1]octan-3-yl)-7-methyl-[1,2,4]triazolo[1,5-a]pyridine] | – | – | pIC50: < 5.00
Cc1cc2ncnn2nc1C1CCN(S(=O)(=O)c2cnn(C)c2C)CC1 [Compound 165, 6-(1-((1,5-dimethyl-1H-pyrazol-4-yl)sulfonyl)piperidin-4-yl)-7-methyl-[1,2,4]triazolo[1,5-b]pyridazine] | 7.22 | – | –
Cc1c(S(=O)(=O)N2CCC(c3ccncc3)CC2)cnn1C [Compound 365, 4-(1-((1,5-dimethyl-1H-pyrazol-4-yl)sulfonyl)piperidin-4-yl)pyridine] | < 5.00 | – | –
O=S(=O)(c1cnc2n1CCC2)N1CC=C(c2cc3ncnn3cc2Cl)CC1 [Compound 206, 6-chloro-7-(1-((6,7-dihydro-5H-pyrrolo[1,2-a]imidazol-3-yl)sulfonyl)-1,2,3,6-tetrahydropyridin-4-yl)-[1,2,4]triazolo[1,5-a]pyridine] | < 5.00 | – | –
Cc1nc2n(c1C1CCN(S(=O)(=O)c3cnn(C)c3CC#N)CC1)CCCC2 [Compound 466, 2-(1-methyl-4-((4-(2-methyl-5,6,7,8-tetrahydroimidazo[1,2-a]pyridin-3-yl)piperidin-1-yl)sulfonyl)-1H-pyrazol-5-yl)acetonitrile] | – | < 5.00 | –
Cc1cc2nncn2cc1C1CCN(S(=O)(=O)c2ccc3c(c2)CCO3)CC1 [Compound 50, 6-(1-((2,3-dihydrobenzofuran-5-yl)sulfonyl)piperidin-4-yl)-7-methyl-[1,2,4]triazolo[4,3-a]pyridine] | < 5.00 | – | –
O=S(=O)(c1ccc2c(c1)CCO2)N1CCC(c2ncc3cc[nH]c3n2)CC1 [Compound 33, 2-(1-((2,3-dihydrobenzofuran-5-yl)sulfonyl)piperidin-4-yl)-7H-pyrrolo[2,3-d]pyrimidine] | < 5.00 | – | –
Cn1ncc(S(=O)(=O)N2CCC(F)(c3cn4ncnc4cc3F)CC2)c1Cl [Compound 502, 6-(1-((5-chloro-1-methyl-1H-pyrazol-4-yl)sulfonyl)-4-fluoropiperidin-4-yl)-7-fluoro-[1,2,4]triazolo[1,5-a]pyridine] | – | 5.79 | –
Cc1c(C2CCN(S(=O)(=O)c3cnc(C)n3C)CC2)cn2ncnc2c1F [Compound 304, 6-(1-((1,2-dimethyl-1H-imidazol-5-yl)sulfonyl)piperidin-4-yl)-8-fluoro-7-methyl-[1,2,4]triazolo[1,5-a]pyridine] | 7.37 | – | –
Cc1cc2ncnn2cc1C1=CCN(S(=O)(=O)c2ccc3c(c2)C(C)(C)CO3)CC1 [Compound 64, 6-(1-((3,3-dimethyl-2,3-dihydrobenzofuran-5-yl)sulfonyl)-1,2,3,6-tetrahydropyridin-4-yl)-7-methyl-[1,2,4]triazolo[1,5-a]pyridine] | < 5.00 | – | –
Cc1nc2[nH]ccc2nc1C1CCN(S(=O)(=O)c2ccc3ncsc3c2)CC1 [Compound 16, 6-((4-(3-methyl-5H-pyrrolo[2,3-b]pyrazin-2-yl)piperidin-1-yl)sulfonyl)benzo[d]thiazole] | < 5.00 | – | –
Cc1cc2nccnc2cc1C1=CCN(S(=O)(=O)c2cnn(C)c2Cl)CC1 [Compound 355, 6-(1-((5-chloro-1-methyl-1H-pyrazol-4-yl)sulfonyl)-1,2,3,6-tetrahydropyridin-4-yl)-7-methylquinoxaline] | 6.80 | – | –
Cc1cc2ncnn2cc1C1CCN(S(=O)(=O)c2ccc3c(c2)nnn3C)CC1 [Compound 124, 1-methyl-5-((4-(7-methyl-[1,2,4]triazolo[1,5-a]pyridin-6-yl)piperidin-1-yl)sulfonyl)-1H-benzo[d][1,2,3]triazole] | < 5.00 | – | –
Cc1cnc2ccccc2c1C1=CCN(S(=O)(=O)c2cnn3c2OCCC3)CC1 [Compound 428, 3-((4-(3-methylquinolin-4-yl)-3,6-dihydropyridin-1(2H)-yl)sulfonyl)-6,7-dihydro-5H-pyrazolo[5,1-b][1,3]oxazine] | – | 7.20 | –
